# Results as given in patent US9351484B2, “N-alkyl lactam ethers, and compositions and uses thereof” (priority 2010, dated 2016).
# Entries after “also recorded” stand apart in the source; their conditions may differ. Like-named read-outs stand apart in the source and are kept apart here.
# What was measured:
# [1] = cited from earlier work
# [2] = Aqueous behavior of ether/water blends, pH 1 to 13, chilled; format: physicochemical; conditions: equal mass ratio with water, pH adjusted from 1 to 13, chilled to −15° C.
# Procedure: The blends were pH adjusted from 1 to 13 and then chilled to −15° C.
# [3] = Freezing points of bis-N-ethyl pyrrolidone ether/water blends by differential scanning calorimetry; format: physicochemical
# Procedure: The freezing points of bis-N-ethyl pyrrolidone ether/water blends were measured using differential scanning calorimetry. All measurements were conducted under nitrogen purge from 25° C. to −80° C. at a cooling rate of 5° C./min using a Q2000 calorimeter by TA Instruments.
# Freezing depressions were measured for bis-N-ethyl pyrrolidone ether/water blends (Table 3).
# [4] = Freezing point depression of glycerol (or other polyol)-water blends with added ether; format: physicochemical
# Procedure: Different binary blends of glycerol and water are prepared, and then bis-N-ethyl pyrrolidone ether is added in 1% increments from 0% to 50% of the ether. The freezing point depression of these compositions is measured using a suitable differential thermometer (e.g., a thermocouple).
# As a specific subclass to Example 5, a eutectic blend of glycerol-water is prepared, having about 65% glycerol (by weight) and a freezing point depression of about −46° C. Bis-N-ethyl pyrrolidone ether is added in 1% increments from 0% to 50% added ether. The freezing point depression of these compositions is measured using a suitable differential thermometer (e.g., a thermocouple).
# […], replacing glycerol with ethylene glycol, propylene glycol, or pentaerythritol.
# [5] = Gas hydrate inhibitor and anti-agglomerant test; conditions: 0.5% and 1.0% (w/w NaCl brine solution), 123 bar, 2.8° C.
# Procedure: Bis-N-ethyl pyrrolidone ether was assessed as a gas hydrate inhibitor and as an anti-agglomerant. A three-part fluid blend was prepared having equal mass amounts of Troika crude oil (black oil), synthetic condensate, and a sodium chloride brine solution into which the ether was dissolved. Ether addition levels were studied two times at 0.5% (w/w NaCl brine solution), and one time at 1.0% (w/w NaCl brine solution). The abovementioned fluid blend blanketed with Green Canyon gas (Table 6) at a pressure of 123 bar and maintained at 2.8° C. for the tests.
# [6] = equal volume ratio
# From the text: The blends were visually observed to determine miscibility of the ether with the various solvents.
smiles,measurement,setting,value
OCCO [ethylene glycol],freezing point,[1]; 11% in water (by mass),−3 °C
same,freezing point,[1]; 22% in water (by mass),−8 °C
same,freezing point,[1]; 32% in water (by mass),−16 °C
same,freezing point,[1]; 43% in water (by mass),−25 °C
same,freezing point,[1]; 53% in water (by mass),−37 °C
same,freezing point,[1]; 63% in water (by mass),−55 °C
same,freezing point,[1]; ethylene glycol and water in equal mass ratio,−32 °C
O=C1CCCN1CCOCCN1CCCC1=O [bis-N-ethyl pyrrolidone ether],phase behavior of blend with water,[2],single phase
same,freezing point,[3]; 1% in water (by mass),−9.3 °C
same,freezing point,[3]; 5% in water (by mass),−7.9 °C
same,freezing point,[3]; 10% in water (by mass),−13.5 °C
same,freezing point,[3]; 20% in water (by mass),−13.3 °C
same,freezing point,[3]; 30% in water (by mass),−18.2 °C
same,freezing point,[3]; 40% in water (by mass),−28.6 °C
same,freezing point,[3]; 50% in water (by mass),−43.2 °C
same,freezing point,[3]; 60% in water (by mass),<−80 °C
same,freezing point,[3]; 66% in water (by mass),<−80 °C
same,freezing point,[3]; 75% in water (by mass),<−80 °C
same,freezing point,[3]; 100% bis-N-ethyl pyrrolidone ether,<−80 °C
same,freezing point depression,[4]; ether added 0% to 50% to eutectic glycerol-water blend (about 65% glycerol),lower than −46 °C
same,freezing point depression compared to glycerol-water binary blends,[4]; ether added 0% to 50% to glycerol-water blends,further depress the freezing point depression
same,freezing point depression compared to solutions without the ether,"[4]; glycerol replaced with ethylene glycol, propylene glycol, or pentaerythritol",lowers the freezing point depression
same,formation of gas hydrates and agglomerants,[5],considerably limited gas hydrate formation; also recorded: very small
same,pH in a 50% aqueous solution,50% aqueous solution,9.5
same,viscosity,"Cannon Fenske viscometer, #300 tube",96.4 cP^†
same,color (APHA),neat,>500
same,freezing point,neat,<−80 °C
same,refractive index,neat,around 1.51
same,specific gravity,neat,1.148
same,thermal decomposition temperature,neat,275 °C
same,physical state,"neat, ambient conditions",liquid (ambient conditions)
same,refractive index,"neat, listed as bis-N-ethyl pyrrolidone",1.5063
same,surface tension (static),plate,50.2
same,surface tension (static),ring,51.1
same,miscibility observation,[6]; 2-propanol,miscible
same,miscibility observation,[6]; acetone,miscible
same,miscibility observation,[6]; cyclohexane,immiscible
same,miscibility observation,"[6]; cyclohexane, listed as bis-N-ethyl pyrrolidone",insoluble
same,miscibility observation,[6]; ethyl acetate,miscible
same,miscibility observation,[6]; hexane,immiscible
same,miscibility observation,"[6]; hexane, listed as bis-N-ethyl pyrrolidone",insoluble
same,miscibility observation,[6]; methanol,miscible
same,miscibility observation,[6]; methyl ethyl ketone,miscible
same,miscibility observation,[6]; toluene,miscible
same,miscibility observation,[6]; water,miscible
